Measured values reported in ChEMBL document CHEMBL1148872, “Bradykinin B1 antagonists: biphenyl SAR studies in the cyclopropanecarboxamide series” (Bioorg Med Chem Lett, 2007).
pKi: −log10 of the molar value.

Tests used:
B1 bradykinin receptor = biological target: T1, B1 bradykinin receptor (Homo sapiens, UniProt P46663); test: Binding affinity to human BK1 receptor
T1 sequence (P46663 whole entry): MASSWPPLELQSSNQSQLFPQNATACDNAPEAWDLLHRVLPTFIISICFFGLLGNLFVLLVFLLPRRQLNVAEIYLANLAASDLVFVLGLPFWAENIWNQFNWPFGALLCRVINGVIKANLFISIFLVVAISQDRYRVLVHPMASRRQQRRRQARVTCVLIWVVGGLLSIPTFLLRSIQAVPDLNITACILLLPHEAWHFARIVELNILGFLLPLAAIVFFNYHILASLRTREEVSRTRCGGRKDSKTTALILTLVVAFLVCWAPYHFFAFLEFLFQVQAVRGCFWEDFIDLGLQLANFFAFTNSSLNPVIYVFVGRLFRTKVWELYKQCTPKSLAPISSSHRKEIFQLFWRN

[1] = Clearance in Sprague-Dawley rat at 10 mg/kg, po or 2 mg/kg, iv; conditions: in vivo
[2] = Half life in Sprague-Dawley rat at 10 mg/kg, po or 2 mg/kg, iv; conditions: in vivo
[3] = Apparent permeability of the compound; conditions: not told
in vivo [4] = conditions: Sprague-Dawley, rat, po, 10 mg/kg
Description: Oral bioavailability in Sprague-Dawley rat at 10 mg/kg, po

[5] = Ratio of drug level in brain to plasma in african green monkey at 2 mg/kg, iv after 30 mins; conditions: chlorocebus aethiops
[6] = Partition coefficient, log P of the compound; conditions: octanol/water
[7] = biological target: T2, B1 bradykinin receptor (Homo sapiens) (UniProt P46663); test: Receptor occupancy efficiency at human BK1 receptor in ex vivo transgenic receptor mouse occupancy model; format: functional
T2 sequence (whole entry): T1 sequence (P46663 whole entry)

in vivo [8] = conditions: rhesus monkey, po, 3 mg/kg
[9] = Half life in rhesus monkey at 3 mg/kg, po or 1 mg/kg, iv; conditions: in vivo
in vivo [10] = conditions: mongrel, dog, po, 3 mg/kg
[11] = Half life in mongrel dog at 3 mg/kg, po or 1 mg/kg, iv; conditions: in vivo

Compound	pKi (B1 bradykinin receptor)	half-life [2]	Papp [3]	bioavailability (in vivo [4])	Occ90 [7]	also measured
C[C@@H](NC(=O)C1(NC(=O)C(F)(F)F)CC1)c1ccc(-c2cc(Cl)ccc2-c2nnn(C)n2)cc1F	8.84					
COC(=O)c1c(F)cc(Cl)cc1-c1ccc([C@@H](C)NC(=O)C2(NC(=O)C(F)(F)F)CC2)c(F)c1	9.17	0.8 h	27 ×10⁻⁶ cm/s	21%		clearance [1]: 13 mL/min/kg
Cc1noc(-c2ccc(Cl)cc2-c2ccc([C@@H](C)NC(=O)C3(NC(=O)C(F)(F)F)CC3)c(F)c2)n1	8.12					
COC(=O)c1c(Cl)cccc1-c1ccc([C@@H](C)NC(=O)C2(NC(=O)C(F)(F)F)CC2)c(F)c1 [MK0686]					520 nM	Kp at 0.5 h ([5]; brain and plasma): 0.4; logP [6]: > 3.6
Cc1nc(-c2c(Cl)cc(Cl)cc2-c2ccc([C@@H](C)NC(=O)C3(NC(=O)C(F)(F)F)CC3)c(F)c2)no1	8.62	5.6 h	23 ×10⁻⁶ cm/s	39%		clearance [1]: 0.8 mL/min/kg
COC(=O)c1cc(Cl)ccc1-c1ccc([C@@H](C)NC(=O)C2(NC(=O)C(F)(F)F)CC2)c(F)c1	6.87					
C[C@@H](NC(=O)C1(NC(=O)C(F)(F)F)CC1)c1ccc(-c2cc(Cl)cc(F)c2-c2nnn(C)n2)cc1F	8.96	3.5 h	23 ×10⁻⁶ cm/s	64%		clearance [1]: 2.3 mL/min/kg
CCOC(=O)c1c(Cl)cccc1-c1cnc([C@@H](C)NC(=O)C2(NC(=O)C(F)(F)F)CC2)c(F)c1	8.92	0.8 h	28 ×10⁻⁶ cm/s	52%	225 nM	Kp at 0.5 h ([5]; brain and plasma): 0.7; bioavailability (in vivo [8]): 12%; logP [6]: 3.6; clearance [1]: 6.8 mL/min/kg; half-life [9]: 1.1 h; bioavailability (in vivo [10]): 20%; half-life [11]: 2.3 h
COC(=O)c1ccc(Cl)cc1-c1ccc([C@@H](C)NC(=O)C2(NC(=O)C(F)(F)F)CC2)c(F)c1	8.69					
COC(=O)c1c(Cl)cc(Cl)cc1-c1ccc([C@@H](C)NC(=O)C2(NC(=O)C(F)(F)F)CC2)c(F)c1	9.34	4.6 h	18 ×10⁻⁶ cm/s	38%	450 nM	Kp at 0.5 h ([5]; brain): 1.1; bioavailability (in vivo [8]): 20%; logP [6]: > 3.8; half-life [9]: 3.9 h; bioavailability (in vivo [10]): 19%
CCOC(=O)c1c(Cl)cc(Cl)cc1-c1cnc([C@@H](C)NC(=O)C2(NC(=O)C(F)(F)F)CC2)c(F)c1	8.74					
Cc1nc(-c2ccc(Cl)cc2-c2ccc([C@@H](C)NC(=O)C3(NC(=O)C(F)(F)F)CC3)c(F)c2)no1	8.86					
C[C@@H](NC(=O)C1(NC(=O)C(F)(F)F)CC1)c1ccc(-c2cc(Cl)cc(Cl)c2-c2nnn(C)n2)cc1F	8.80				540 nM	
COC(=O)c1c(Cl)cc(Cl)cc1-c1cnc([C@@H](C)NC(=O)C2(NC(=O)C(F)(F)F)CC2)c(F)c1	8.59	1.3 h	29 ×10⁻⁶ cm/s	19%	210 nM	Kp at 0.5 h ([5]; brain and plasma): 0.8; bioavailability (in vivo [8]): 12%; logP [6]: 3.3; clearance [1]: 16.6 mL/min/kg; half-life [9]: 2.5 h; bioavailability (in vivo [10]): 66%; half-life [11]: 6.6 h
C[C@@H](NC(=O)C1(NC(=O)C(F)(F)F)CC1)c1ncc(-c2cc(Cl)cc(Cl)c2-c2nnn(C)n2)cc1F	8.42					
COC(=O)c1c(Cl)cccc1-c1cnc([C@@H](C)NC(=O)C2(NC(=O)C(F)(F)F)CC2)c(F)c1	9.11				350 nM	
CCOC(=O)c1c(Cl)cc(Cl)cc1-c1ccc([C@@H](C)NC(=O)C2(NC(=O)C(F)(F)F)CC2)c(F)c1	8.73					
